From patent US9480695B2, “Methods for inducing orexin neurons and agent for treating narcolepsy or eating disorder” (THE UNIVERSITY OF TOKYO, priority 2011, dated 2016)

Tests used:
Assay type in all cases: cell-based
[1] = test system: Mouse ES cells (J1 strain); assay: Hcrt expression with ManNAc plus Sirt inhibitor or Ogt inhibitor, neural differentiation from mouse ES cell, RT-PCR; conditions: ManNAc 1.0 mM from 0th day, BADGP 1 mM or 5 mM on 7th day, collected 10th day; FIG. 9
Method: According to the same manner as that described in Example 1, mouse ES cells (J1 strain) were cultured for 10 days for differentiation induction into a nerve cell. A protocol of inducing differentiation into a nerve cell is shown in the upper column of FIG. 11. From the initiation of differentiation culturing (0th day), ManNAc was added to a neural differentiation medium so that the concentration became 1.0 mM, and the medium was exchanged on 4th and 7th days of differentiation culturing. In addition, from 4th day of differentiation culturing, 5 nM recombinant human BMP4 (Wako) was added. On 7th day of differentiation culturing, EX-527 (SIGMA-ALDRICH) was added to a neural differentiation medium so that the concentration became 50 nM or BADGP (SIGMA-ALDRICH) was added to a neural differentiation medium so that the concentration became 1 or 5 mM, and on 10th day of differentiation culturing, cells were collected and subjected to RT-PCR. The conditions of RT-PCR are the same as those of Example 1.

[2] = test system: endbrain-derived neurosphere (NSph); assay: Orexin inducing action on mouse fetus-derived neurosphere (NSph), RT-PCR; conditions: 1 mM from initiation of NSph culture, 6 days plus 10 days differentiation; FIG. 7
Method: A culture and differentiation induction experiment was performed based on the method of Ciccolini and Svendsen (1998, J Neurosci. 18(19): 7869-80). An endbrain was removed from a C57BL/6N mouse fetus having an embryonic age of 14.5 days in ice-cold PBS/0.6% glucose. Dispersion into a single cell was performed by pipetting, and cells were suspended in a medium for NSph [DMEM/F12 (Wako) containing 1×B27 (Invitrogen), 20 ng/ml EGF (Sigma), 20 ng/ml FGF-basic (PEPROTECH), 5 μg/ml heparin (Sigma)] and seeded on a 10 cm petri dish in an amount of 2×10^6 cells/10 ml. Half the amount of the medium was exchanged 3 days after initiation of culturing, and culturing was performed for another 3 days (total 6 days).
NSph was recovered 6 days after initiation of culturing, and cells were dispersed by pipetting in PBS/0.6% glucose. Cells were collected by centrifugation and suspended in a medium for differentiation induction (not containing EGF, FGF-basic and heparin of a medium for NSph). Cells were seeded in an amount of 4.5×10^5 cells/7.5 ml on a 6 cm dish which had been coated with poly-L-lysine/laminin (both Sigma) in advance, and differentiation was induced. Half the amount of the medium was exchanged 5 days after initiation of differentiation induction, and culturing was performed for another 5 days (total 10 days). […]

[3] = test system: Mouse ES cells (J1 strain); assay: Induction of Hcrt expression in neural differentiation from mouse ES cells, SDIA differentiation culture system, RT-PCR
Method: Mouse ES cells (J1 strain) which had been maintained in a medium for an ES cell [DMEM (Wako) added with 15% FBS (Biowest), 1 mM sodium pyruvate (Invitrogen), […] (Invitrogen), 2 mM L-glutamine (Invitrogen), 1 mM non essential amino acid (Invitrogen), 50 U/ml penicillin/50 μg/ml streptomycin (Invitrogen), 2000 U leukemia inhibitory factor (Chemicon, CA)] were seeded on a 10 cm culture dish so that the cell count became 1×10^5 cells per culture dish on which PA6 stromal cells had been seeded in advance, and differentiation induction was performed in a medium for neural differentiation [Glasgow MEM (Invitrogen) added with 10% KSR (Invitrogen), […] (Invitrogen), 1 mM non essential amino acid (Invitrogen), 50 U/ml penicillin/50 μg/ml streptomycin (Invitrogen)] for 10 days. On 4th and 7th days of differentiation culturing, the medium was exchanged. In addition, from 4th day of differentiation culturing, 5 nM recombinant human BMP4 (Wako) was added (FIG. 1). On 10th day of differentiation culturing, cells were collected and pelletized by a centrifugation operation to remove the culture medium. Thereafter, the pellets were immediately frozen in liquid nitrogen and stored at −80° C. until use.
The total RNA was extracted from the collected cells using RNeasy plus Mini Kit (QIAGEN). Then, a reverse transcription reaction was performed in a reaction liquid containing 1 μg of the total RNA, and Oligo (dT) using SuperScript III First Strand Synthesis System (Invitrogen) to synthesize a cDNA.
A PCR reaction was performed on a 10 μl scale, 1 U of LA-Taq DNA Polymerase (Takara) was added to 0.5 μl of a cDNA, 5 μl of 2×GC Buffer I, each 200 μM of dNTP, 1.5 mM MgCl2, and each primer having a final concentration of 0.2 μM, thermal denaturation was performed at 95° C. for 3 minutes, and the reaction was performed under the condition of (30 seconds at 95° C., 30 seconds at 55° C., and 30 seconds at 72° C.)×35 cycles (20 cycles in the case of Actb). The primers used are shown below.
Each PCR product was electrophoresed on a 2% agarose gel, stained with ethidium bromide, and a band was observed by UV irradiation.

SMILES: CC(=O)N[C@@H]1C(O)O[C@H](CO)[C@@H](O)[C@@H]1O (stereo partly drawn) [ManNAc, N-acetyl-D-mannosamine]
- Expression of an orexin gene (Hcrt) [1]: expression of Hcrt which had been recognized in a ManNAc-added section
- Expression of Hcrt [2]: detected only in a 1.0 mM ManNAc-added culture
- Level of Hcrt expression by addition period ([3]; 1.0 mM ManNAc, added on 4th to 10th, 7th to 10th and 0th to 10th days versus 0th to 4th and 0th to 7th days): high expression was observed in the section in which ManNAc was added to a medium on and after 7th day of differentiation
- Expression of Hcrt with changed time of addition ([3]; 1.0 mM, addition time varied, FIG. 3): expression of Hcrt was observed only in a ManNAc-added section at any addition time
- Expression of an orexin gene (Hcrt) ([3]; added from initiation of differentiation culturing at 0.2 and 1.0 mM, cells collected on 10th day, FIG. 2): expression of Hcrt was recognized only in a ManNAc-added section
